Patent US6372726B1, “Methods of cancer treatment using NAALADase inhibitors” (Guilford Pharmaceuticals Inc., priority 1996, dated 2002)
Like-named read-outs stand apart in the source and are kept apart here.

Experiments:
mice = assay: In vivo toxicity of NAALADase inhibitors in mice; conditions: doses of 1 to 500 mg/kg, observed 5 consecutive days
Excerpt: The mice were subsequently observed two times per day for 5 consecutive days.

NAALADase = NAALADase (UniProt P70627); assay: In vitro assay of NAALADase activity ([3H]Glu liberated from [3H]NAAG, synaptosomal protein); assay type: biochemical; conditions: for NAALADase inhibiting activity (in words): comparison of Table III(a) compounds
Protocol: The following compounds were tested for in vitro inhibition of NAALADase activity.
Substrate and product were resolved by anion-exchange liquid chromatography. […] Quisqualate (100 μM) was included in parallel assay tubes to confirm the specificity of the measurements.

[1] = test system: LNCAP cells (a prostate cancer cell line); assay: In vitro cancer assay: 3H-thymidine incorporation in LNCAP cells; assay type: cell-based, human; conditions: for 3H-Thymidine Incorporation (dpm/well): LNCAP cells, 7 days
Protocol: On the 7th day, the cells are pulsed with 3H-thymidine for 4 hours, harvested and measured for radioactivity. Values represent means +/−SEM of 6 separate cell wells for each treatment. All experiments are performed at least twice.
Cells are grown in RPMI-1640 media supplemented with 10% heat-inactivated fetal calf serum, 2 mM-glutamine, 100 units/ml penicillin, and 100 μg/ml streptomycin (Paragon) in a humidified incubator at 37° C. in a 5% CO2/95% O2 atmosphere.
The cells are suspended at 1×10^3 cells/ml in RPMI-1640 media and seeded into 24-well plates at 500 μl per well. […] On days 3, 5 and 7, media and drug are refreshed. On the 8th day following seeding, each well is pulsed with 1 μCi ^3H-thymidine (New England Nuclear) for 4 hours. Media is then removed and the wells washed 2 times with phosphate buffered saline (pH=7.4). […] 5 ml UltimaGold (Packard) scintillation cocktail is added and radioactivity is quantitated using a Beckman LS6001 scintillation counter.

[2] = test system: LNCAP human prostate tumors; assay: In vivo LNCaP tumor xenograft assay; set-up: species or system mice; conditions: daily intratumoral injection (0.25 μg/day), six weeks, p=0.04
Protocol: Referring now to FIGS. 3 and 4, LNCaP human prostate cancer cells were injected subcutaneously into the right flank of male nude mice. […] The 2-(phosphonomethyl)pentanedioic acid polymer was changed two times per week. Tumor volumes were monitored for 42 days after the beginning of treatment.
LNCaP is a human prostate cancer cell line that was established in 1973 from a […] of a patient who had been treated with 5-FU, doxorubicin, methotrexate, and CTX in the 3 months before the cell line was initiated. This line is androgen receptor positive and has been used in screening anticancer drugs that are targeted as hormone antagonists. […]
(§1) After the animals were released from quarantine, the mice were injected subcutaneously in the right flank with 1×10^7 LNCaP cells in Matrigel™ (0.1-ml injection volume) Tumor dimensions and body weight were measured twice weekly. Vernier calipers were used to measure tumors in three planes, and tumor volume (V) was calculated as follows: V=π(x×y×z)/6, where x, y, and z were the tumor measurements minus skin thickness. […]
The tumor were measured twice weekly for at least 8 weeks after the first treatment. The mean tumor volume for each group was calculated for each time point. Comparisons between groups at specific times were made using an unpaired, two-tailed t-test, and the results were analyzed using analysis of variance (ANOVA). […]

[3] = test system: R3327 rat prostate tumors (Dunning R3327-G prostate cancer cells); assay: In vivo rat Dunning R3327 model
Protocol: Referring now to FIGS. 5 and 6, Dunning R3327-G prostate cancer cells were injected subcutaneously into both flanks of syngeneic male rats. […] In the second study, the anti-tumor growth activity of 2-[[phenylmethyl)hydroxyphosphinyl]methyl]pentanedioic acid was tested following daily intra-tumoral injections of the drug (0.1,1,10,100 μg) after the tumor reached an initial volume of 80-290 mm^3. Tumor volumes were subsequently monitored for 42 days after the beginning of drug treatment.
R3327-G is a cell line derived from an androgen-sensitive papillary adenocarcinoma derived from a spontaneously forming tumor in the rat prostate. […]
as §1, with “rats” for “mice”, “both flanks” for “the right flank”, “R3327-G” for “LNCaP”, “cells” for “cells in Matrigel™”, “volume).” for “volume)”
The tumors were measured twice weekly. The mean tumor volume for each group was calculated for each time point. Comparisons between groups at specific times were made using an unpaired, two-tailed t-test, and the results were analyzed using analyzed of variance (ANOVA). […]

[4] = Table III(c), read-out: Ki Value

`O=C(O)CCC(CP(=O)(O)O)C(=O)O` (stereo not shown) [2-(phosphonomethyl)pentanedioic acid] was tested, and the “Toxicological effect in mice (in words)” value (mice) was “non-toxic”, the Ki (NAALADase; Table III(a)) was 0.275 ± 0.08 nM and the “NAALADase inhibiting activity (in words)” value (NAALADase) was “high level of NAALADase inhibiting activity”. For the same compound, the Ki (NAALADase; text restating Table III(a)) was 0.27 nM, the “Potency relative to previously described inhibitors” value (NAALADase; times more potent) was greater than 1000 times and the “LNCAP cell proliferation (incorporation of [3H]thymidine), FIG. 2” value ([1]; 7-day treatment, 100 pM to 10 nM) was “sharp dose-dependent decrease”. For the same compound, the “3H-Thymidine Incorporation (dpm/well)” value ([1]; 10 pM) was 3078 ± 1006 dpm/well, the “3H-Thymidine Incorporation (dpm/well)” value ([1]; 100 pM) was 2062 ± 595 dpm/well and the “3H-Thymidine Incorporation (dpm/well)” value ([1]; 1 nM) was 1001 ± 52 dpm/well. The “3H-Thymidine Incorporation (dpm/well)” value ([1]; 10 nM) was 664 ± 366 dpm/well, the “Mean tumor volume versus control group, FIG. 3” value [2] was “statistically significant difference” and the “Tumor growth, FIG. 5” value ([3]; daily subcutaneous injections 1, 3, 10 and 30 mg/kg, 84 days) was “tumor growth slowed”.

Work on `CCCCP(=O)(O)CC(CCC(=O)O)C(=O)O` (stereo not shown) yielded a Ki (NAALADase; Table III(b), read-out: Ki) of 148 nM.

In the case of `O=C(O)CCC(CP(=O)(O)Cc1ccccc1F)C(=O)O` (stereo not shown), the Ki (NAALADase; [4]) is reported as 175 nM.

`O=C(O)CCC(CP(=O)(O)Cc1c(F)c(F)c(F)c(F)c1F)C(=O)O` (stereo not shown) was tested, and the Ki (NAALADase; [4]) was 38 nM.

For `Cc1cccc(P(=O)(O)CC(CCC(=O)O)C(=O)O)c1` (stereo not shown), the Ki (NAALADase; Table III(b), read-out: Ki) was 190 nM.

With `O=C(O)CCC(CP(=O)(O)Cc1ccccc1)C(=O)O` (stereo not shown) [2-[(benzylhydroxyphosphinyl)methyl]pentanedioic acid] the “Mean tumor volume relative to start of treatment (V/Vo) versus control group, FIG. 6” value ([3]; daily intra-tumoral injections of 1 μg, 2.5 weeks, p=0.02) was “statistically significant difference”.

`O=C(O)CC(CP(=O)(O)O)C(=O)O` (stereo not shown) [2-(phosphonomethyl)succinic acid, reference compound] was tested, and the “NAALADase inhibiting activity (in words)” value (NAALADase) was “much lower NAALADase inhibiting activity”.

With `O=C(O)CCC(CP(=O)(O)CCC(=O)O)C(=O)O` (stereo not shown) [2-[[2-carboxyethyl)hydroxyphosphinyl]-methyl]pentanedioic acid)] the “NAALADase inhibiting activity (in words)” value (NAALADase) was “lower NAALADase inhibiting activity”.
